In ChEMBL document CHEMBL3576813, “Cucurbitacin D Is a Disruptor of the HSP90 Chaperone Machinery” (J Nat Prod, 2015):
Activity calls are given as the source filed them. The rule behind the calls is not given here.

Experiments:
[1] = target: T1, Heat shock protein HSP90 (Homo sapiens) (UniProt P07900+P08238); assay: Inhibition of HSP90 in human MCF7 cells assessed as pAkt degradation after 24 hrs by Western blot analysis; assay type: cell-based
[2] = target: T1, Heat shock protein HSP90 (Homo sapiens); assay: Inhibition of HSP90 in human MCF7 cells assessed as Raf degradation after 24 hrs by Western blot analysis; assay type: cell-based
[3] = target: T1, Heat shock protein HSP90 (Homo sapiens); assay: Inhibition of HSP90 in human MCF7 cells assessed as Her2 degradation after 24 hrs by Western blot analysis; assay type: cell-based
MCF7 [4] = assay: Change in p23 expression in human MCF7 cells at 0.01 to 10 uM after 24 hrs by Western blot analysis; assay type: functional, cell-based
[5] = target: T1, Heat shock protein HSP90 (Homo sapiens); assay: Inhibition of HSP90 in human MCF7 cells assessed as disruption of interaction with p23 at 0.5 times to 5 times IC50 after 24 hrs by co-immunoprecipitation assay; assay type: cell-based
MCF7 [6] = assay: Cytotoxicity against human MCF7 cells assessed as growth inhibition after 72 hrs by MTS/PMS assay; assay type: functional, cell-based; settings: MCF7, 72 h
[7] = target: T1, Heat shock protein HSP90 (Homo sapiens); assay: Inhibition of HSP90 in human MCF7 cells assessed as disruption of interaction with Cdc37 at 0.5 times to 5 times IC50 after 24 hrs by co-immunoprecipitation assay; assay type: cell-based
[8] = target: T1, Heat shock protein HSP90 (Homo sapiens); assay: Inhibition of HSP90 in human MCF7 cells assessed as Cdk6 degradation after 24 hrs by Western blot analysis; assay type: cell-based
MCF7 [9] = assay: Change in Cdc37 expression in human MCF7 cells at 0.01 to 10 uM after 24 hrs by Western blot analysis; assay type: functional, cell-based
[10] = target: T1, Heat shock protein HSP90 (Homo sapiens); assay: Inhibition of HSP90 in human MCF7 cells assessed as induction of heat shock response-mediated HSP27 production at 5 times to 10 times IC50 after 24 hrs by Western blot analysis relative to vehicle-treated control; assay type: cell-based
[11] = target: T1, Heat shock protein HSP90 (Homo sapiens); assay: Inhibition of HSP90 in human MCF7 cells assessed as Raf degradation at 0.5 times to 5 times IC50 after 24 hrs by Western blot analysis; assay type: cell-based
[12] = target: T1, Heat shock protein HSP90 (Homo sapiens); assay: Inhibition of HSP90 in human MCF7 cells assessed as induction of heat shock response-mediated HSP70 production at 0.5 times to 5 times IC50 after 24 hrs by Western blot analysis; assay type: cell-based
[13] = target: T1, Heat shock protein HSP90 (Homo sapiens); assay: Inhibition of HSP90 in human MCF7 cells assessed as pAkt degradation at 0.5 times to 5 times IC50 after 24 hrs by Western blot analysis; assay type: cell-based
[14] = target: T1, Heat shock protein HSP90 (Homo sapiens); assay: Inhibition of HSP90 in human MCF7 cells assessed as induction of heat shock response-mediated HSP90 production at 0.5 times to 5 times IC50 after 24 hrs by Western blot analysis; assay type: cell-based
[15] = target: T1, Heat shock protein HSP90 (Homo sapiens); assay: Inhibition of HSP90 in human MCF7 cells assessed as Cdk6 degradation at 0.5 times to 5 times IC50 after 24 hrs by Western blot analysis; assay type: cell-based
[16] = target: T1, Heat shock protein HSP90 (Homo sapiens); assay: Inhibition of HSP90 in human MCF7 cells assessed as Her2 degradation at 0.5 times to 5 times IC50 after 24 hrs by Western blot analysis; assay type: cell-based
[17] = target: T1, Heat shock protein HSP90 (Homo sapiens); assay: Inhibition of HSP90 in human MCF7 cells assessed as induction of heat shock response-mediated HSP27 production at 0.5 times to 5 times IC50 after 24 hrs by Western blot analysis; assay type: cell-based
MCF7 [18] = assay: Change in p23 expression in human MCF7 cells at 5 times IC50 after 24 hrs by Western blot analysis; assay type: functional, cell-based
MCF7 [19] = assay: Change in Cdc37 expression in human MCF7 cells at 5 times IC50 after 24 hrs by Western blot analysis; assay type: functional, cell-based
[20] = target: T2, Prostaglandin E synthase 3 (Homo sapiens) (UniProt Q15185); assay: Binding affinity to p23 in human MCF7 cells assessed as inhibition of interaction with HSP90 at 5 times IC50 after 24 hrs by co-immunoprecipitation assay; assay type: cell-based
T2 sequence (whole entry): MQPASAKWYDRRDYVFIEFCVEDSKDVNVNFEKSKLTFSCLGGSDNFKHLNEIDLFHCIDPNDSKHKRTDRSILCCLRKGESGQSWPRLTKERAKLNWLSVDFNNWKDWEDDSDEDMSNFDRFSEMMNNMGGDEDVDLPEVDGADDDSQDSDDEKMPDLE

For CC(C)(O)/C=C/C(=O)[C@](C)(O)[C@H]1[C@H](O)C[C@@]2(C)[C@@H]3CC=C4[C@@H](CC(=O)[C@H](O)C4(C)C)[C@]3(C)C(=O)C[C@]12C, the inhibition [1] was “Dose-dependent effect”, the inhibition [2] was “Dose-dependent effect” and the inhibition [3] was “Dose-dependent effect”. For the same compound, the Activity (MCF7 [4]) was “inactive”, the inhibition [5] was “inactive” and the IC50 (MCF7 [6]; read-out: IC50) was 718 nM. For the same compound, the inhibition [7] was “inactive”, the inhibition [8] was “Dose-dependent effect” and the Activity (MCF7 [9]) was “inactive”. For the same compound, the inhibition [10] was “Active”.
In the case of CC(C)(O)CCC(=O)[C@@](C)(O)[C@H]1[C@H](O)C[C@@]2(C)[C@@H]3CC=C4[C@@H](C[C@H](O)C(=O)C4(C)C)[C@]3(C)C(=O)C[C@]12C, the inhibition [11] is reported as “inactive”, the inhibition [12] is reported as “inactive” and the inhibition [13] is reported as “inactive”. The inhibition [14] was “inactive”, the inhibition [15] was “inactive” and the inhibition [16] was “inactive”. For the same compound, the IC50 (MCF7 [6]; read-out: IC50) was 5130 nM and the inhibition [17] was “inactive”.
For CC(=O)OC(C)(C)CCC(=O)[C@](C)(O)[C@H]1[C@H](O)C[C@@]2(C)[C@@H]3CC=C4[C@@H](C[C@H](O)C(=O)C4(C)C)[C@]3(C)C(=O)C[C@]12C [23,24-DIHYDROCUCURBITACIN B], the inhibition [11] was “inactive”, the inhibition [12] was “inactive” and the inhibition [13] was “inactive”. For the same compound, the inhibition [14] was “inactive”, the inhibition [15] was “inactive” and the inhibition [16] was “inactive”. For the same compound, the IC50 (MCF7 [6]; read-out: IC50) was 46300 nM and the inhibition [17] was “inactive”.
CC1=C(O)C(=O)C=C2C1=CC=C1[C@@]2(C)CC[C@@]2(C)[C@@H]3C[C@](C)(C(=O)O)CC[C@]3(C)CC[C@]12C [CELASTROL] was tested, and the Activity (MCF7 [18]) was “Active”, the IC50 (MCF7 [6]; read-out: IC50) was 153 nM and the Activity (MCF7 [19]) was “Active”.
With CC(=O)OC(C)(C)/C=C/C(=O)[C@](C)(O)[C@H]1[C@H](O)C[C@@]2(C)[C@@H]3CC=C4[C@H](C[C@H](O)C(=O)C4(C)C)[C@]3(C)C(=O)C[C@]12C [CUCURBITACIN B] the inhibition [11] was “inactive”, the inhibition [12] was “inactive” and the inhibition [13] was “inactive”. For the same compound, the inhibition [14] was “inactive”, the inhibition [15] was “inactive” and the inhibition [16] was “inactive”. For the same compound, the IC50 (MCF7 [6]; read-out: IC50) was 41.3 nM and the inhibition [17] was “inactive”.
CC(C)(O)/C=C/C(=O)[C@](C)(O)[C@H]1[C@H](O)C[C@@]2(C)[C@@H]3CC=C4[C@@H](C[C@H](O)C(=O)C4(C)C)[C@]3(C)C(=O)C[C@]12C [CUCURBITACIN D] was tested, and the inhibition [1] was “Dose-dependent effect”, the inhibition [2] was “Dose-dependent effect” and the inhibition [3] was “Dose-dependent effect”. For the same compound, the Activity (MCF7 [4]) was “inactive”, the IC50 (MCF7 [6]; read-out: IC50) was 598 nM and the inhibition [8] was “Dose-dependent effect”. The Activity (MCF7 [9]) was “inactive” and the inhibition [10] was “inactive”.
With CC(=O)OC(C)(C)/C=C/C(=O)[C@](C)(O)[C@H]1[C@H](O)C[C@@]2(C)[C@@H]3CC=C4[C@@H](C=C(O)C(=O)C4(C)C)[C@]3(C)C(=O)C[C@]12C [CUCURBITACIN E] the inhibition [11] was “inactive”, the inhibition [12] was “inactive” and the inhibition [13] was “inactive”. For the same compound, the inhibition [14] was “inactive”, the inhibition [15] was “inactive” and the inhibition [16] was “inactive”. The IC50 (MCF7 [6]) was 55 nM and the inhibition [17] was “inactive”.
For CC(C)(O)/C=C/C(=O)[C@](C)(O)[C@H]1[C@H](O)C[C@@]2(C)[C@@H]3CC=C4[C@@H](C=C(O)C(=O)C4(C)C)[C@]3(C)C(=O)C[C@]12C [CUCURBITACIN I], the inhibition [11] was “inactive”, the inhibition [12] was “inactive” and the inhibition [13] was “inactive”. For the same compound, the inhibition [14] was “inactive”, the inhibition [15] was “inactive” and the inhibition [16] was “inactive”. The IC50 (MCF7 [6]; read-out: IC50) was 60.7 nM and the inhibition [17] was “inactive”.
CC(=O)O[C@@H]1C[C@H]2C(C)(C)C(=O)C=C[C@]2(C)[C@H]2CC[C@@]3(C)[C@H](c4ccoc4)OC(=O)[C@H]4O[C@]43[C@@]21C [GEDUNIN] was tested, and the Activity (MCF7 [18]) was “Active”, the IC50 (MCF7 [6]; read-out: IC50) was 10900 nM and the Activity (MCF7 [19]) was “Active”. The inhibition [10] was “inactive” and the inhibition [20] was “Active”.
For COC1=C2C[C@@H](C)C[C@H](OC)[C@H](O)[C@@H](C)/C=C(\C)[C@H](OC(N)=O)[C@@H](OC)/C=C\C=C(/C)C(=O)NC(=CC1=O)C2=O [GELDANAMYCIN], the Activity (MCF7 [18]) was “Active”, the IC50 (MCF7 [6]; read-out: IC50) was 42.7 nM and the Activity (MCF7 [19]) was “Active”.
